Measured values from ChEMBL document CHEMBL3045265, “Synthesis and Fungicidal Activity of 2-Alkoxyimino-2-cyanoacetamide Derivatives” (1998).

What was measured:
Type in all cases: functional
[1] = tested on: Pseudoperonospora cubensis; assay: Fungicidal activity against Pseudoperonospora cubensis in cucumber plant assessed as cucumber downy mildew disease control at 7.8 ppm at 22 +/- 2 degC, 98% RH measured after 10 days
[2] = tested on: Pseudoperonospora cubensis; assay: Fungicidal activity against Pseudoperonospora cubensis in cucumber plant assessed as cucumber downy mildew disease control at 31.3 ppm at 22 +/- 2 degC, 98% RH measured after 10 days
[3] = tested on: Pseudoperonospora cubensis; assay: Fungicidal activity against Pseudoperonospora cubensis in cucumber plant assessed as cucumber downy mildew disease control at 500 ppm at 22 +/- 2 degC, 98% RH measured after 10 days
[4] = tested on: Pseudoperonospora cubensis; assay: Fungicidal activity against Pseudoperonospora cubensis in cucumber plant assessed as cucumber downy mildew disease control at 125 ppm at 22 +/- 2 degC, 98% RH measured after 10 days

SMILES | Activity [3] | Activity [4] | other results
CO/N=C(\C#N)C(=O)NC1=NOC(C)(C)C1 |  |  | Activity [1]: 70%
CO/N=C(\C#N)C(=O)NC1=NOC(C)C1 (stereo unspecified) |  |  | Activity [2]: 70%
CO/N=C(\C#N)C(=O)NC1=NOC(c2ccccc2)C1 (stereo unspecified) | <70% |  | 
CO/N=C(\C#N)C(=O)NC1=NOC(CCl)(CCl)C1 |  | 70% | 
CO/N=C(\C#N)C(=O)NC1=NOC(C)(C)C1C (stereo unspecified) | 70% |  | 
CCO/N=C(\C#N)C(=O)NC1=NOC(C)(C)C1 |  |  | Activity [2]: 70%
CC(C)O/N=C(\C#N)C(=O)NC1=NOC(C)(C)C1 |  |  | Activity [2]: 70%
C=CCO/N=C(\C#N)C(=O)NC1=NOC(C)(C)C1 |  | 70% | 
CC1(C)CC(NC(=O)/C(C#N)=N/OCC#N)=NO1 | <70% |  | 
CC1(C)CC(NC(=O)/C(C#N)=N/OCc2ccccc2)=NO1 | <70% |  | 
COCO/N=C(\C#N)C(=O)NC1=NOC(C)(C)C1 |  | 70% | 
CO/N=C(\C#N)C(=O)N(C)C1=NOC(C)(C)C1 | <70% |  | 
CCN(C(=O)/C(C#N)=N/OC)C1=NOC(C)(C)C1 | <70% |  | 
CO/N=C(\C#N)C(=O)N(CC(=O)OC)C1=NOC(C)(C)C1 | <70% |  | 
COCN(C(=O)/C(C#N)=N/OC)C1=NOC(C)(C)C1 | <70% |  | 
CO/N=C(\C#N)C(=O)Nc1cc(C)cs1 | <70% |  | 
CO/N=C(\C#N)C(=O)Nc1nnc(C)s1 | <70% |  | 
CO/N=C(\C#N)C(=O)Nc1cc(C)on1 |  | 70% | 
CCOC(=O)NNC(=O)NC(=O)/C(C#N)=N/OC | <70% |  | 
CO/N=C(\C#N)C(=O)NC(=O)NNC(=O)c1ccccc1 | <70% |  | 
CO/N=C(\C#N)C(=O)NC(=O)NNS(=O)(=O)c1ccccc1 | <70% |  | 
CO/N=C(\C#N)C(=O)NC(=O)OC(C)C |  | 70% | 
CO/N=C(\C#N)C(=O)NC(=O)OC(C)(C)C(=O)OC | 70% |  | 

SMILES | Activity [3] | Activity [4] | other results
CO/N=C(\C#N)C(=O)NC(=O)OCC(C)(C)C(=O)OC | <70% |  | 
CO/N=C(\C#N)C(=O)NC(=O)OCC(=O)N(C)c1ccccc1 | <70% |  | 
CO/N=C(\C#N)C(=O)NC(=O)ON=C(C)C | 70% |  | 
CO/N=C(\C#N)C(=O)NC1=NOCC1 |  | 70% | 
CO/N=C(\C#N)C(=O)NC1=NOCC1C (stereo unspecified) |  | 70% | 
CCC1CC(NC(=O)/C(C#N)=N/OC)=NO1 (stereo unspecified) |  | 70% | 
CO/N=C(\C#N)C(=O)NC1=NOC(C(C)C)C1 (stereo unspecified) |  | 70% | 
CCCCC1CC(NC(=O)/C(C#N)=N/OC)=NO1 (stereo unspecified) |  | 70% | 
CO/N=C(\C#N)C(=O)NC1=NOC(C2CCCCC2)C1 (stereo unspecified) | <70% |  | 
CO/N=C(\C#N)C(=O)NC1=NOC(Cc2ccccc2)C1 (stereo unspecified) | <70% |  | 
C=CC1CC(NC(=O)/C(C#N)=N/OC)=NO1 (stereo unspecified) | <70% |  | Activity [2]: 70%
CO/N=C(\C#N)C(=O)NC1=NOC(CO)C1 (stereo unspecified) |  | 70% | 
CO/N=C(\C#N)C(=O)NC1=NOC(CCl)C1 (stereo unspecified) |  |  | Activity [2]: 70%
CO/N=C(\C#N)C(=O)NC1=NOC(C)C1C (stereo unspecified) |  | 70% | 
CCC1ON=C(NC(=O)/C(C#N)=N/OC)C1CC (stereo unspecified) | 70% |  | 
CCC1(CC)CC(NC(=O)/C(C#N)=N/OC)=NO1 |  | 70% | 
CCC1(C)CC(NC(=O)/C(C#N)=N/OC)=NO1 (stereo unspecified) |  | 70% | 
CCCC1(C)CC(NC(=O)/C(C#N)=N/OC)=NO1 (stereo unspecified) |  | 70% | 
CO/N=C(\C#N)C(=O)NC1=NOC(C)(CO)C1 (stereo unspecified) |  |  | Activity [2]: 70%
CO/N=C(\C#N)C(=O)NC1=NOC(C)(CCl)C1 (stereo unspecified) |  |  | Activity [2]: 70%
CO/N=C(\C#N)C(=O)NC1=NOC(C(C)(C)C)C1 (stereo unspecified) |  | 70% | 
CO/N=C(\C#N)C(=O)NC(=O)OC(C)(C)C |  | 70% | 
